Source: paper PMC9715617 (Frontiers in Pharmacology, 2022)

Target: SARS-CoV-2 3CL^pro (Severe acute respiratory syndrome coronavirus 2, UniProt P0DTD1)
Experiment: SARS-CoV-2 3CLpro enzyme inhibition assay (fluorophore-quencher peptide substrate)
Type: biochemical
Conditions: for IC50: 200 nM 3CLpro, 20 min preincubation, 30 min at 25°C, triplicate
Description: Fluorescence intensity was measured on a microplate reader (λex = 485 nm; λem = 528 nm). Experiment was performed in triplicate.

SMILES | IC50 [nM] | inhibition activity, times stronger than that of ML300 (ratio of IC50 values vs ML300)
O=C(N[C@@H](c1cccc(F)c1)C(F)(F)F)[C@@H](c1cnccn1)N(C(=O)c1ccco1)c1ccc(C2CCCCC2)cc1 [Hit 1] | 17 ± 3 | about 236 times
O=C(NCc1c(F)c(F)c(F)c(F)c1F)[C@@H](c1cccnc1)N(C(=O)c1ccno1)c1ccc(-c2cccs2)cc1 [Hit 2] | 830 ± 110 | –
C[C@H](NC(=O)[C@@H](c1cccnc1)N(C(=O)c1ccno1)c1ccc(C2CCCCC2)cc1)c1cccc(F)c1F [Hit 3] | 90 ± 20 | –
O=C(NCc1ccccc1)[C@@H](c1cccnc1)N(C(=O)c1ccco1)c1ccc(-c2cccs2)cc1 [Hit 4] | 750 ± 40 | –
O=C(Nc1ccc(N(Cc2ccsc2)C(=O)Cn2nnc3ccccc32)cc1)C1CC1 [ML300, reference compound] | 4010 ± 660 | –
